# Reference: US6028201A, “Inhibitors of farnesyl-protein transferase” (Merck & Co., Inc., priority 1998, dated 2000)
# Counter-ions that a name gives are not always drawn.
# Biological target: T1, human FPTase (Homo sapiens, UniProt P49354+P49356)
# T1 construct: made in house
# Experiment: In vitro inhibition of human FPTase
# Assay type: biochemical
# Settings: 100 nM Ras-CVIM substrate, [3H]-FPP, 30 min; read-out: IC50 against human FPTase
row,IC50 [µM],Structure (SMILES)
1,< 10,"CCCCCN(Cc1cncn1Cc1ccc(C#N)cc1)C(=O)Nc1cccc(Cl)c1 [Example 1, N-(3-chlorophenyl)-N'-[1-(4-cyanobenzyl)-5-imidazolylmethyl]-N'-(n-pentyl)urea hydrochloride]"
2,< 10,"CCCCCN(Cc1cncn1Cc1ccc(C#N)cc1)C(=O)N(C)c1cccc(Cl)c1 [Example 2, N-(3-chlorophenyl)-N-methyl-N'-[1-(4-cyanobenzyl)-5-imidazolylmethyl]-N'-(n-pentyl)urea hydrochloride]"
